Reference: US11103510B2, “JAK1 pathway inhibitors for the treatment of cytokine-related disorders” (Incyte Corporation, priority 2018, dated 2021)

Assays:
[1] = biological target: human JAK1 (a.a. 837-1142) (Homo sapiens, UniProt P23458); assay: In vitro JAK kinase assay (HTRF), JAK1; assay type: biochemical; conditions: 1 mM ATP
Procedure: (§1) The catalytic activity of JAK1, JAK2 or JAK3 was assayed by measuring the phosphorylation of a biotinylated peptide. The phosphorylated peptide was detected by homogenous time resolved fluorescence (HTRF). […] Reactions are carried out at room temperature for 1 hour and then stopped with 20 μL 45 mM EDTA, 300 nM SA-APC, 6 nM Eu-Py20 in assay buffer (Perkin Elmer, Boston, Mass.). Binding to the Europium labeled antibody takes place for 40 minutes and HTRF signal was measured on a Fusion plate reader (Perkin Elmer, Boston, Mass.).

[2] = biological target: human JAK2 (a.a. 828-1132) (Homo sapiens (Human), UniProt O60674); assay: In vitro JAK kinase assay (HTRF), JAK2, for JAK2/JAK1 ratio; assay type: biochemical; conditions: IC50 ratio, 1 mM ATP
Sequence of human JAK2 (a.a. 828-1132) (O60674 828-1132): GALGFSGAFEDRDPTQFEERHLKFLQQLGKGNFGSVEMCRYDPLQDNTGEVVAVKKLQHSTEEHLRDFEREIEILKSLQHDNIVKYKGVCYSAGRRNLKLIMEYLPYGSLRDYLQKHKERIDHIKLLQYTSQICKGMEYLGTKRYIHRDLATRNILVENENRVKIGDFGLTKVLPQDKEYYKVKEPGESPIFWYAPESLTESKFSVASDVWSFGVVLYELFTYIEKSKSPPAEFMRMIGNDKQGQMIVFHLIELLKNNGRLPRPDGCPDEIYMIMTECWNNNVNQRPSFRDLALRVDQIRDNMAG
Procedure: as §1

With N#CC[C@]1(n2cc(-c3ncnc4[nH]ccc34)cn2)C[C@H](N2CCC(Oc3cc(CN4CCC[C@H]4CO)cc(C(F)(F)F)n3)CC2)C1 [Compound 12, {trans-3-(4-{[4-{[(2S)-2-(hydroxymethyl)pyrrolidin-1-yl]methyl}-6-(trifluoromethyl)pyridin-2-yl]oxy}piperidin-1-yl)-1-[4-(7H-pyrrolo[2,3-d]pyrimidin-4-yl)-1H-pyrazol-1-yl]cyclobutyl}acetonitrile] the IC50 [1] was < 10 nM and the JAK2/JAK1 [2] was >10.

In the case of C[C@H](O)CNCc1cc(OC2CCN([C@H]3C[C@](CC#N)(n4cc(-c5ncnc6[nH]ccc56)cn4)C3)CC2)nc(C(F)(F)F)c1 [Compound 25, {trans-3-(4-{[4-({[(2S)-2-hydroxypropyl]amino}methyl)-6-(trifluoromethyl)pyridin-2-yl]oxy}piperidin-1-yl)-1-[4-(7H-pyrrolo[2,3-d]pyrimidin-4-yl)-1H-pyrazol-1-yl]cyclobutyl}acetonitrile], the IC50 [1] is reported as < 10 nM and the JAK2/JAK1 [2] is reported as >10.

CCNCc1cc(O[C@H]2CC[C@@H](N3CC(CC#N)(n4cc(-c5ncnc6[nH]ccc56)cn4)C3)CC2)nc(C(F)(F)F)c1 [Compound 19, {1-(cis-4-{[4-[(ethylamino)methyl]-6-(trifluoromethyl)pyridin-2-yl]oxy}cyclohexyl)-3-[4-(7H-pyrrolo[2,3-d]pyrimidin-4-yl)-1H-pyrazol-1-yl]azetidin-3-yl}acetonitrile] was tested, and the IC50 [1] was < 10 nM and the JAK2/JAK1 [2] was >10.

N#CCC(CN1CCN(C(=O)c2ccc(C#N)cc2F)CC1)n1ccc(-c2ncnc3[nH]ccc23)c1 (stereo not drawn) [Compound 9, 4-[(4-{3-cyano-2-[3-(7H-pyrrolo[2,3-d]pyrimidin-4-yl)-1H-pyrrol-1-yl]propyl}piperazin-1-yl)carbonyl]-3-fluorobenzonitrile] was tested, and the IC50 [1] was < 10 nM and the JAK2/JAK1 [2] was >10.

For C[C@@H](O)CNCc1cc(OC2CCN([C@H]3C[C@](CC#N)(n4cc(-c5ncnc6[nH]ccc56)cn4)C3)CC2)nc(C(F)(F)F)c1 [Compound 24, {trans-3-(4-{[4-({[(2R)-2-hydroxypropyl]amino}methyl)-6-(trifluoromethyl)pyridin-2-yl]oxy}piperidin-1-yl)-1-[4-(7H-pyrrolo[2,3-d]pyrimidin-4-yl)-1H-pyrazol-1-yl]cyclobutyl}acetonitrile], the IC50 [1] was < 10 nM and the JAK2/JAK1 [2] was >10.

In the case of C[C@@H](O)c1nc2cnc3ccsc3c2n1[C@H]1CC[C@H](CC#N)OC1 [Compound 5, ((2R,5S)-5-{2-[(1R)-1-hydroxyethyl]-1H-imidazo[4,5-d]thieno[3,2-b]pyridin-1-yl}tetrahydro-2H-pyran-2-yl)acetonitrile], the IC50 [1] is reported as < 100 nM and the JAK2/JAK1 [2] is reported as >10.

With N#CCC(CN1CCN(C(=O)c2ccc(C#N)cc2F)CC1)n1cc(-c2ncnc3[nH]ccc23)cn1 (stereo not drawn) [Compound 8, 4-[(4-{3-cyano-2-[4-(7H-pyrrolo[2,3-d]pyrimidin-4-yl)-1H-pyrazol-1-yl]propyl}piperazin-1-yl)carbonyl]-3-fluorobenzonitrile] the IC50 [1] was < 10 nM and the JAK2/JAK1 [2] was >10.

In the case of N#CCC(C1CCN(c2nc3cccnc3o2)C1)n1cc(-c2ncnc3[nH]ccc23)cn1 (stereo not drawn) [Compound 7, 3-(1-[1,3]oxazolo[5,4-b]pyridin-2-ylpyrrolidin-3-yl)-3-[4-(7H-pyrrolo[2,3-d]pyrimidin-4-yl)-1H-pyrazol-1-yl]propanenitrile], the IC50 [1] is reported as < 10 nM and the JAK2/JAK1 [2] is reported as >10.

For N#CC[C@]1(n2cc(-c3ncnc4[nH]ccc34)cn2)C[C@H](N2CCC(Oc3cc(CCO)cc(C(F)(F)F)n3)CC2)C1 [Compound 26, {trans-3-(4-{[4-(2-hydroxyethyl)-6-(trifluoromethyl)pyridin-2-yl]oxy}piperidin-1-yl)-1-[4-(7H-pyrrolo[2,3-d]pyrimidin-4-yl)-1H-pyrazol-1-yl]cyclobutyl}acetonitrile], the IC50 [1] was < 10 nM and the JAK2/JAK1 [2] was >10.

With N#CCC1(n2cc(-c3ncnc4[nH]ccc34)cn2)CN([C@H]2CC[C@@H](Oc3cc(CN4CC[C@H](O)C4)cc(C(F)(F)F)n3)CC2)C1 [Compound 22, {1-(cis-4-{[4-{[(3S)-3-hydroxypyrrolidin-1-yl]methyl}-6-(trifluoromethyl)pyridin-2-yl]oxy}cyclohexyl)-3-[4-(7H-pyrrolo[2,3-d]pyrimidin-4-yl)-1H-pyrazol-1-yl]azetidin-3-yl}acetonitrile] the IC50 [1] was < 10 nM and the JAK2/JAK1 [2] was >10.

With N#CC[C@]1(n2cc(-c3ncnc4[nH]ccc34)cn2)C[C@H](N2CCC(Oc3cc(CN4CC(O)C4)cc(C(F)(F)F)n3)CC2)C1 [Compound 11, {trans-3-(4-{[4-[(3-hydroxyazetidin-1-yl)methyl]-6-(trifluoromethyl)pyridin-2-yl]oxy}piperidin-1-yl)-1-[4-(7H-pyrrolo[2,3-d]pyrimidin-4-yl)-1H-pyrazol-1-yl]cyclobutyl}acetonitrile] the IC50 [1] was < 10 nM and the JAK2/JAK1 [2] was >10.

For N#CC[C@]1(n2cc(-c3ncnc4[nH]ccc34)cn2)C[C@H](N2CCC(Oc3cc(CN4CCC[C@@H]4CO)cc(C(F)(F)F)n3)CC2)C1 [Compound 13, {trans-3-(4-{[4-{[(2R)-2-(hydroxymethyl)pyrrolidin-1-yl]methyl}-6-(trifluoromethyl)pyridin-2-yl]oxy}piperidin-1-yl)-1-[4-(7H-pyrrolo[2,3-d]pyrimidin-4-yl)-1H-pyrazol-1-yl]cyclobutyl}acetonitrile], the IC50 [1] was < 10 nM and the JAK2/JAK1 [2] was >10.
